Measured values: patent publication US8039496B2, “Therapeutic compounds” (Allergan, Inc., priority 2007, dated 2011)
Where two headings read alike, the source gives them in different places.

How the values were obtained:
hEP2 [1] = molecular target: T1, hEP2 (Homo sapiens, UniProt P43116); test: hEP2 flipr functional assay; assay type: cell-based
Excerpt: (§1) U.S. patent application Ser. No. 11/553,143, filed on Oct. 26, 2006, describes the methods used to obtain the in vitro data in the table below.

hEP4 [2] = molecular target: T2, hEP4 (Homo sapiens, UniProt P35408); test: hEP4 flipr functional assay; assay type: cell-based
Excerpt: as §1

hEP4 [3] = molecular target: T2, hEP4; test: hEP4 binding (Ki)
Excerpt: as §1

hEP2 [4] = molecular target: T1, hEP2; test: hEP2 cAMP functional assay; assay type: cell-based
Excerpt: as §1

hEP2 [5] = molecular target: T1, hEP2; test: hEP2 binding (Ki)
Excerpt: as §1

normotensive dogs [6] = test: Intraocular pressure in normotensive dogs; assay type: in vivo; conditions: Canis lupus familiaris, topical, 120 h, once daily for 5 days, read-out: maximum IOP decrease from baseline (percent)
Experimental: (§2) U.S. Pat. No. 7,091,231 describes the methods used for these in vivo tests. 5-{3-[1R,2S,3R,5R)-5-Chloro-2-(3,5-dichloro-phenoxymethyl)-3-hydroxy-cyclopentyl]-propyl}-thiophene-2-carboxylic acid was tested at multiple concentrations in normotensive dogs, dosing once daily for 5 days. At 0.1%, the maximum intraocular pressure (IOP) decrease from baseline was 7.5 mmHg (48%) at 30 h; the maximum ocular surface hyperemia (OSH) score was 2.75 at 26 h. At 0.01%, the maximum IOP decrease from baseline was 7.5 mmHg (43%) at 76 h; the maximum OSH score was 2.0 at 26 h. At 0.005%, the maximum IOP decrease from baseline was 6.6 mmHg (35%) at 78 h; the maximum OSH score was 1.75 at 74 h. This compound was also tested in laser-induced hypertensive monkeys, using one single day dose. At 0.01%, the maximum IOP decrease from baseline was 20.2 mmHg (53%) at 24 h.

normotensive dogs [7] = test: Ocular surface hyperemia in normotensive dogs; assay type: in vivo; parameters: scale not given here; conditions: once daily for 5 days
Experimental: as §2

[8] = the 2nd table, read-out: hEP2 flipr EC50
[9] = the 2nd table, read-out: hEP4 flipr EC50
[10] = the 2nd table, read-out: hEP4 Ki
[11] = the 2nd table, read-out: hEP2 cAMP EC50
[12] = the 2nd table, read-out: hEP2 Ki
[13] = the 3rd table, read-out: EP2 data flipr EC50
[14] = the 3rd table, read-out: EP4 data flipr EC50
[15] = the 3rd table, read-out: EP4 data KI
[16] = the 3rd table, read-out: EP2 data cAMP EC50
[17] = the 3rd table, read-out: EP2 data Ki

T1 sequence (P43116 whole entry): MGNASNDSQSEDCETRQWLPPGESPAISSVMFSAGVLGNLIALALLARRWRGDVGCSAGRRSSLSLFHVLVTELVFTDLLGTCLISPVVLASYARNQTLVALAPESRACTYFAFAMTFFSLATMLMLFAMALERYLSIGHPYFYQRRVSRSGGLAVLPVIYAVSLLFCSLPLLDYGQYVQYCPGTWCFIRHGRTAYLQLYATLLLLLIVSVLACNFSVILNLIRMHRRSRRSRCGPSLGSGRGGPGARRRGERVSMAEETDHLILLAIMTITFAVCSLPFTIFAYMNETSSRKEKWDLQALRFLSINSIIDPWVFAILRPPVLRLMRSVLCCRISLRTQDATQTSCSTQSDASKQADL
T2 sequence (P35408 whole entry): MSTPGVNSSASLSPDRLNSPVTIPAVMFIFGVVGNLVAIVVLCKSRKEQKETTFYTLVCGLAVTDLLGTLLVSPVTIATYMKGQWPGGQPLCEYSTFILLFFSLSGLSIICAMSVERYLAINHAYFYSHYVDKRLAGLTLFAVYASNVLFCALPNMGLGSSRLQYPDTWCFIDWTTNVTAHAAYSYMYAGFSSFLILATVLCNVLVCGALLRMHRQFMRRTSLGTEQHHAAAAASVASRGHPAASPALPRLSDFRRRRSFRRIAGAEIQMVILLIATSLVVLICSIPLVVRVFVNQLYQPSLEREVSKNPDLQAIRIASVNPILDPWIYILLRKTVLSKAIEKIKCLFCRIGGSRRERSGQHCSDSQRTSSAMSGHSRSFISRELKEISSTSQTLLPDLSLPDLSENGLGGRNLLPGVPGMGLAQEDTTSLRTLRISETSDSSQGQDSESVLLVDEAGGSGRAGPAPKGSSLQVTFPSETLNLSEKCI

Row | EC50 (hEP2 [1]; [8]) [nM] | EC50 (hEP4 [2]; [9]) [nM] | Ki (hEP4 [3]; [10]) [nM] | EC50 (hEP2 [4]; [11]) [nM] | Ki (hEP2 [5]; [12]) [nM] | SMILES | also measured
1 | 15 | > 10000 | 149 | 0.2 | 3 | N#C[C@@H]1C[C@@H](O)[C@H](COc2cc(Cl)cc(Cl)c2)[C@H]1CCCc1ccc(C(=O)O)s1 [drawing 40, 5-{3-[(1S,2S,3R,5R)-5-Cyano-2-(3,5-dichloro-phenoxymethyl)-3-hydroxy-cyclopentyl]-propyl}-thiophene-2-carboxylic acid] | 
2 |  |  |  |  |  | O=C(O)c1ccc(CCC[C@@H]2[C@@H](COc3cc(Cl)cc(CO)c3)[C@H](O)C[C@H]2Cl)s1 [Example 5, 5-{3-[(1R,2S,3R,5R)-5-Chloro-2-(3-chloro-5-hydroxymethyl-phenoxymethyl)-3-hydroxy-cyclopentyl]-propyl}-thiophene-2-carboxylic acid] | inhibition in vivo at 0.1 % (normotensive dogs [6]): 34%; maximum ocular surface hyperemia (OSH) score (normotensive dogs [7]; 0.1%): 1.9
3 |  |  |  |  |  | Cc1cc(C)cc(OC[C@@H]2[C@@H](CCCc3ccc(C(=O)O)s3)[C@H](Cl)C[C@H]2O)c1 [Example 6, 5-{3-[(1R,2S,3R,5R)-5-Chloro-2-(3,5-dimethyl-phenoxymethyl)-3-hydroxy-cyclopentyl]-propyl}-thiophene-2-carboxylic acid] | inhibition in vivo at 0.01 % (normotensive dogs [6]): 33%; maximum ocular surface hyperemia (OSH) score (normotensive dogs [7]; 0.01%): 1.9
4 | 297 | > 10000 | 179 | 2 | 39 | O=C(O)c1ccc(CCC[C@H]2C(=O)CC[C@@H]2COc2cc(Cl)cc(CO)c2)s1 [5-{3-[(1R,2S)-2-(3-Chloro-5-hydroxymethyl-phenoxymethyl)-5-oxo-cyclopentyl]-propyl}-thiophene-2-carboxylic acid] | 
5 | 7010 | > 10000 | 366 | 0.12 | 2 | O=C(O)c1ccc(CCC[C@@H]2[C@@H](COc3cc(Cl)cc(Cl)c3)[C@H](O)C[C@H]2Cl)s1 [drawing 35, 5-{3-[(1R,2S,3R,5R)-5-Chloro-2-(3,5-dichloro-phenoxymethyl)-3-hydroxy-cyclopentyl]-propyl}-thiophene-2-carboxylic acid] | 
6 |  |  |  |  |  | CCCCCCCc1ccc(OC[C@@H]2[C@@H](CCCc3ccc(C(=O)O)s3)[C@H](Cl)C[C@H]2O)cc1 [5-(3-((1R,2S,3R,5R)-5-chloro-2-((4-heptylphenoxy)methyl)-3-hydroxycyclopentyl)propyl)thiophene-2-carboxylic acid] | EC50 (hEP2 [1]; [13]): 6820 nM; EC50 (hEP4 [2]; [14]): > 10000 nM; Ki (hEP4 [3]; [15]): 4520 nM; EC50 (hEP2 [4]; [16]): 46 nM; Ki (hEP2 [5]; [17]): 378 nM
7 |  |  |  |  |  | O=C(O)CCC/C=C\C[C@@H]1[C@@H](COc2cc(Cl)cc(Cl)c2)[C@H](O)C[C@H]1Cl [(Z)-7-[(1R,2S,3R,5R)-5-Chloro-2-(3,5-dichloro-phenoxymethyl)-3-hydroxy-cyclopentyl]-hept-5-enoic acid] | maximum ocular surface hyperemia (OSH) score (normotensive dogs [7]; 0.05%): 0.6; maximum ocular surface hyperemia (OSH) score (normotensive dogs [7]; 0.1%): 1.3
8 |  |  |  |  |  | O=C(O)c1ccc(CCC[C@@H]2[C@@H](COc3ccc4ccccc4c3)[C@H](O)C[C@H]2Cl)s1 [5-(3-((1R,2S,3R,5R)-5-chloro-3-hydroxy-2-((naphthalen-2-yloxy)methyl)cyclopentyl)propyl)thiophene-2-carboxylic acid] | EC50 (hEP2 [1]; [13]): > 10000 nM; EC50 (hEP4 [2]; [14]): > 10000 nM; Ki (hEP4 [3]; [15]): 227 nM; EC50 (hEP2 [4]; [16]): 3 nM; Ki (hEP2 [5]; [17]): 3 nM
9 |  |  |  |  |  | CCc1cc(OC[C@@H]2[C@@H](CCCc3ccc(C(=O)O)s3)[C@H](Cl)C[C@H]2O)ccc1Cl [5-(3-((1R,2S,3R,5R)-5-chloro-2-((4-chloro-3-ethylphenoxy)methyl)-3-hydroxycyclopentyl)propyl)thiophene-2-carboxylic acid] | EC50 (hEP2 [1]; [13]): 31400 nM; EC50 (hEP4 [2]; [14]): 26500 nM; Ki (hEP4 [3]; [15]): 177 nM; EC50 (hEP2 [4]; [16]): 0.4 nM; Ki (hEP2 [5]; [17]): 2 nM
10 | 6750 | > 10000 | 197 | 5.2 | 12 | O=C(O)c1ccc(CCC[C@@H]2[C@@H](COc3cc(Cl)cc(CO)c3)CC[C@H]2Cl)s1 [5-{3-[(1R,2R,5S)-2-Chloro-5-(3-chloro-5-hydroxymethyl-phenoxymethyl)-cyclopentyl]-propyl}-thiophene-2-carboxylic acid] | 
11 | 31 | 2940 | 158 | 0.2 | 2 | Cc1cc(C)cc(OC[C@@H]2[C@@H](CCCc3ccc(C(=O)O)s3)[C@H](Cl)C[C@H]2O)c1 [drawing 37, 5-{3-[(1R,2S,3R,5R)-5-Chloro-2-(3,5-dimethyl-phenoxymethyl)-3-hydroxy-cyclopentyl]-propyl}-thiophene-2-carboxylic acid] | 
12 | 83 | > 10000 | 310 | 0.7 | 8 | O=C(O)c1ccc(CCC[C@@H]2[C@@H](COc3cc(Cl)cc(Cl)c3)[C@H](O)C[C@H]2F)s1 [5-{3-[(1R,2S,3R,5R)-2-(3,5-Dichloro-phenoxymethyl)-5-fluoro-3-hydroxy-cyclopentyl]-propyl}-thiophene-2-carboxylic acid] | 
13 | 3280 | > 10000 |  | 0.26 | 3 | O=C(O)c1ccc(CCC[C@@H]2[C@@H](COc3cc(Cl)cc(CO)c3)[C@H](O)C[C@H]2Cl)s1 [drawing 36, 5-{3-[(1R,2S,3R,5R)-5-Chloro-2-(3-chloro-5-hydroxymethyl-phenoxymethyl)-3-hydroxy-cyclopentyl]-propyl}-thiophene-2-carboxylic acid] | 
14 |  |  |  |  |  | N#C[C@@H]1C[C@@H](O)[C@H](COc2cc(Cl)cc(Cl)c2)[C@H]1CCCc1ccc(C(=O)O)s1 [Example 9, 5-{3-[(1S,2S,3R,5R)-5-Cyano-2-(3,5-dichloro-phenoxymethyl)-3-hydroxy-cyclopentyl]-propyl}-thiophene-2-carboxylic acid] | inhibition in vivo at 0.01 % (normotensive dogs [6]): 17%; maximum ocular surface hyperemia (OSH) score (normotensive dogs [7]; 0.01%): 1.2
15 |  |  |  |  |  | O=C(O)c1ccc(CCC[C@@H]2[C@@H](COc3ccc4c(c3)CCCC4)[C@H](O)C[C@H]2Cl)s1 [5-(3-((1R,2S,3R,5R)-5-chloro-3-hydroxy-2-((5,6,7,8-tetrahydronaphthalen-2-yloxy)methyl)cyclopentyl)propyl)thiophene-2-carboxylic acid] | EC50 (hEP2 [1]; [13]): 2490 nM; EC50 (hEP4 [2]; [14]): > 10000 nM; Ki (hEP4 [3]; [15]): 800 nM; EC50 (hEP2 [4]; [16]): 12 nM; Ki (hEP2 [5]; [17]): 38 nM
16 |  |  |  |  |  | CC(C)OC(=O)c1ccc(CCC[C@@H]2[C@@H](COc3cc(Cl)cc(CO)c3)[C@H](O)C[C@H]2Cl)s1 [Example 14, Isopropyl 5-{3-[(1R,2S,3R,5R)-5-Chloro-2-(3-chloro-5-hydroxymethyl-phenoxymethyl)-3-hydroxy-cyclopentyl]-propyl}-thiophene-2-carboxylate] | inhibition in vivo at 0.1 % (normotensive dogs [6]): 36%; maximum ocular surface hyperemia (OSH) score (normotensive dogs [7]; 0.1%): 1.9

Row | SMILES | EC50 (hEP2 [1]; [8]) [nM] | EC50 (hEP4 [2]; [9]) [nM] | Ki (hEP4 [3]; [10]) [nM] | EC50 (hEP2 [4]; [11]) [nM] | Ki (hEP2 [5]; [12]) [nM] | also measured
17 | CC(=O)OCCc1cc(Cl)cc(OC[C@@H]2[C@@H](C/C=C\CCCC(=O)O)[C@H](Cl)C[C@H]2O)c1 [(Z)-7-{(1R,2S,3R,5R)-2-[3-(2-Acetoxy-ethyl)-5-chloro-phenoxymethyl]-5-chloro-3-hydroxy-cyclopentyl}-hept-5-enoic acid] | 4990 |  |  | 18 | 82 | 
